The text below walks through data of US11701355B2, “Levosimendan for treating pulmonary hypertension with heart failure with preserved ejection fraction (PH-HFpEF)” (Tenax Therapeutics, Inc., priority 2019, dated 2023).

Data set [1] is described as follows: Pharmacokinetic study, subcutaneous vs IV administration, plasma levosimendan and OR-1896 by HPLC/MS/MS. Particulars: male, Sprague Dawley, rat, in vivo. How it is done: A pharmacokinetic study was conducted in male Sprague Dawley rats to compare subcutaneous administration of a composition of the present invention with IV administration of a formulation of levosimendan. The study evaluated levosimendan blood levels and pain at the injection site.
This study involved comparing the results of administering two subcutaneous compositions according to embodiments of the present invention to a previous pharmacokinetic study in which male rats were dosed by tail vein levosimendan as an IV bolus injection at 0.5 mg/kg using a 0.25 mg/ml solution. Thus, this study comprised three study arms: • a. IV administration of a composition comprising levosimendan (0.25 mg/ml) and phosphate buffer (10 mmolar), prepared in sterile water for injection and adjusted to a pH of 7.0 to 7.9 using 1 N NaOH or 10 N NaOH; this composition was administered at a dose of 0.5 mg/kg. • b. Subcutaneous administration of a composition comprising levosimendan (1.0 mg/ml), Captisol® (100 mg/ml), and phosphate buffer (10 mmolar), prepared in sterile water for injection and adjusted to a pH of 7.0 to 7.9 using 1 N NaOH or 10 N NaOH; this composition was administered at a dose of 0.5 mg/kg. • c. […]
Plasma samples were analyzed for levosimendan and OR-1896 (the primary metabolite) by HPLC/MS/MS. […]

Data set [2] relates to HFrEF patients. Conditions: compared with placebo; cited from earlier work.
For data set [3] the following is noted: parent drug, intravenous infusion; cited from earlier work.
Data set [4] deals with patients afflicted with pulmonary hypertension. Conditions: chronic dosing over an 8-week period; cited from earlier work.

As to `C[C@@H]1CC(=O)NN=C1c1ccc(NN=C(C#N)C#N)cc1` [levosimendan, Levosimendan], the “start of the β phase (loss from blood mainly due to metabolism)” value in data set [1] is on record as “about 2 hours”. Besides, in data set [2], the “cardiac output, stroke volume, ejection fraction, and heart rate” value was “increased”; the “systolic blood pressure, diastolic blood pressure, pulmonary capillary wedge pressure, right atrial pressure, and peripheral vascular resistance” value was “reduced”. The half-life result in data set [3] is “approximately 1 hour”. Further, the efficacy result in data set [4] was “failed to show efficacy”.
